Values quoted from earlier work in patent US20180273582A1, “SMALL MOLECULE AFFINITY MEMBRANE PURIFICATION SYSTEMS AND USES THEREOF” (UNIVERSITY OF NOTRE DAME, priority 2015, published 2018).

Target: nucleotide binding site (NBS) of antibody
Conditions: antibody NBS region; from reference [43]; read-out: Kd (binding affinity to the conserved NBS region)

For `O=C(O)CCCc1c[nH]c2ccccc12` [IBA, indole-3-butyric acid], the Kd is given as 1 to 8 µM.
